Measurements taken from ChEMBL document CHEMBL5537151, “Design, synthesis and bioactivity evaluation of novel fusion peptides and their CPT conjugates inducing effective anti-tumor responses on HER2 positive tumors” (Eur J Med Chem, 2024).
Active and inactive are the calls of the source. No cut-off for these calls is given here.

What was measured:
SK-BR-3 [1] = experiment: Induction of apoptosis in human SK-BR-3 cells assessed as necrotic cells at 1 uM incubated for 24 hrs in presence of SMAC peptide by Annexin V-FITC/PI staining based flow cytometry analysis (reference value: 1.49%); assay type: functional
[2] = Toxicity in nude mouse xenografted with human SK-BR-3 cells assessed as increase in creatinine level at 8 umol/kg, iv administered every 3 days for 14 days in presence of SMAC peptide; assay type: organism-based; conditions: in vivo, 336 h, dose 8 µmol/kg, time 14 day
SK-BR-3 [3] = experiment: Induction of apoptosis in human SK-BR-3 cells assessed as downregulation of cIAP1 protein expression incubated for 24 hrs in presence of SMAC peptide by Western blot analysis; assay type: functional, cell-based
[4] = Toxicity in nude mouse xenografted with human SK-BR-3 cells assessed as change in alkaline phosphatase level at 8 umol/kg, iv administered every 3 days for 14 days in presence of SMAC peptide; assay type: organism-based; conditions: in vivo, 336 h, dose 8 µmol/kg, time 14 day
SK-BR-3 [5] = experiment: Induction of apoptosis in human SK-BR-3 cells assessed as downregulation of XIAP protein expression incubated for 24 hrs by Western blot analysis; assay type: functional, cell-based
[6] = Toxicity in nude mouse xenografted with human SK-BR-3 cells assessed as change in total protein level at 8 umol/kg, iv administered every 3 days for 14 days in presence of SMAC peptide; assay type: organism-based; conditions: in vivo, 336 h, dose 8 µmol/kg, time 14 day
[7] = Toxicity in nude mouse xenografted with human SK-BR-3 cells assessed as change in globulin level at 8 umol/kg, iv administered every 3 days for 14 days in presence of SMAC peptide; assay type: organism-based; conditions: in vivo, 336 h, dose 8 µmol/kg, time 14 day
[8] = Toxicity in nude mouse xenografted with human SK-BR-3 cells assessed as change in alkaline phosphatase level at 8 umol/kg, iv administered every 3 days for 14 days; assay type: organism-based; conditions: in vivo, 336 h, dose 8 µmol/kg, time 14 day
[9] = Toxicity in nude mouse xenografted with human SK-BR-3 cells assessed as change in albumin level at 8 umol/kg, iv administered every 3 days for 14 days; assay type: organism-based; conditions: in vivo, 336 h, dose 8 µmol/kg, time 14 day
[10] = Toxicity in nude mouse xenografted with human SK-BR-3 cells assessed as change in globulin level at 8 umol/kg, iv administered every 3 days for 14 days; assay type: organism-based; conditions: in vivo, 336 h, dose 8 µmol/kg, time 14 day
SK-BR-3 [11] = experiment: Induction of apoptosis in human SK-BR-3 cells assessed as necrotic cells at 1 uM incubated for 24 hrs by Annexin V-FITC/PI staining based flow cytometry analysis (reference value: 1.49%); assay type: functional
SK-BR-3 [12] = experiment: Antitumor activity against human SK-BR-3 cells xenografted in nude mouse assessed as inhibition of tumor growth at 8 umol/kg, iv administered every 3 days for 14 days and measured every 2 days by vernier caliper analysis; assay type: functional, organism-based; conditions: dose 8.0 µmol/kg, time 14.0 day
[13] = Toxicity in nude mouse xenografted with human SK-BR-3 cells assessed as increase in AST level at 8 umol/kg, iv administered every 3 days for 14 days in presence of SMAC peptide; assay type: organism-based; conditions: in vivo, 336 h, dose 8 µmol/kg, time 14 day
SK-BR-3 [14] = experiment: Induction of apoptosis in human SK-BR-3 cells assessed as late apoptotic cells at 1 uM incubated for 24 hrs in presence of SMAC peptide by Annexin V-FITC/PI staining based flow cytometry analysis (reference value: 1.11%); assay type: functional
[15] = Toxicity in nude mouse xenografted with human SK-BR-3 cells assessed as change in albumin level at 8 umol/kg, iv administered every 3 days for 14 days in presence of SMAC peptide; assay type: organism-based; conditions: in vivo, 336 h, dose 8 µmol/kg, time 14 day
[16] = Toxicity in nude mouse xenografted with human SK-BR-3 cells assessed as increase in AST level at 8 umol/kg, iv administered every 3 days for 14 days; assay type: organism-based; conditions: in vivo, 336 h, dose 8 µmol/kg, time 14 day
[17] = Toxicity in nude mouse xenografted with human SK-BR-3 cells assessed as change in total protein level at 8 umol/kg, iv administered every 3 days for 14 days; assay type: organism-based; conditions: in vivo, 336 h, dose 8 µmol/kg, time 14 day
[18] = Toxicity in nude mouse xenografted with human SK-BR-3 cells assessed as increase in ALT level at 8 umol/kg, iv administered every 3 days for 14 days in presence of SMAC peptide; assay type: organism-based; conditions: in vivo, 336 h, dose 8 µmol/kg, time 14 day
SK-BR-3 [19] = experiment: Induction of apoptosis in human SK-BR-3 cells assessed as downregulation of XIAP protein expression incubated for 24 hrs in presence of SMAC peptide by Western blot analysis; assay type: functional, cell-based
SK-BR-3 [20] = experiment: Induction of apoptosis in human SK-BR-3 cells assessed as live cells at 1 uM incubated for 24 hrs by Annexin V-FITC/PI staining based flow cytometry analysis (reference value: 94.6%); assay type: functional
SK-BR-3 [21] = experiment: Induction of apoptosis in human SK-BR-3 cells assessed as early apoptotic cells at 1 uM incubated for 24 hrs by Annexin V-FITC/PI staining based flow cytometry analysis (reference value: 2.80%); assay type: functional
[22] = Toxicity in nude mouse xenografted with human SK-BR-3 cells assessed as increase in ALT level at 8 umol/kg, iv administered every 3 days for 14 days; assay type: organism-based; conditions: in vivo, 336 h, dose 8 µmol/kg, time 14 day
SK-BR-3 [23] = experiment: Induction of apoptosis in human SK-BR-3 cells assessed as downregulation of cIAP1 protein expression incubated for 24 hrs by Western blot analysis; assay type: functional, cell-based
SK-BR-3 [24] = experiment: Antitumor activity against human SK-BR-3 cells xenografted in nude mouse assessed as inhibition of tumor growth at 8 umol/kg, iv administered every 3 days for 14 days with SMAC peptide and measured every 2 days by vernier caliper analysis; assay type: functional, organism-based; conditions: dose 8.0 µmol/kg, time 14.0 day
SK-BR-3 [25] = experiment: Induction of apoptosis in human SK-BR-3 cells assessed as early apoptotic cells at 1 uM incubated for 24 hrs in presence of SMAC peptide by Annexin V-FITC/PI staining based flow cytometry analysis (reference value: 2.80%); assay type: functional
SK-BR-3 [26] = experiment: Induction of apoptosis in human SK-BR-3 cells assessed as live cells at 1 uM incubated for 24 hrs in presence of SMAC peptide by Annexin V-FITC/PI staining based flow cytometry analysis (reference value: 94.6%); assay type: functional
SK-BR-3 [27] = experiment: Induction of apoptosis in human SK-BR-3 cells assessed as late apoptotic cells at 1 uM incubated for 24 hrs by Annexin V-FITC/PI staining based flow cytometry analysis (reference value: 1.11%); assay type: functional
[28] = Toxicity in nude mouse xenografted with human SK-BR-3 cells assessed as increase in blood urea nitrogen level at 8 umol/kg, iv administered every 3 days for 14 days in presence of SMAC peptide; assay type: organism-based; conditions: in vivo, 336 h, dose 8 µmol/kg, time 14 day

CCC1(OC(=O)OCCSSC[C@@H](N)C(=O)N[C@@H](CC(N)=O)C(=O)N2CCC[C@H]2C(=O)N[C@@H](CC(N)=O)C(=O)N[C@@H](Cc2c[nH]c3ccccc23)C(=O)NCC(=O)N[C@@H](CCCNC(=N)N)C(=O)N[C@@H](CO)C(=O)N[C@@H](Cc2c[nH]c3ccccc23)C(=O)N[C@@H](Cc2ccc(O)cc2)C(=O)N[C@@H](CC(N)=O)C(=O)N[C@@H](CCC(N)=O)C(=O)N[C@@H](CCCNC(=N)N)C(=O)N[C@@H](Cc2ccccc2)C(=O)N[C@@H](CCCCN)C(=O)N[C@@H](CCCCN)C(N)=O)C(=O)OCc2c1cc1n(c2=O)Cc2cc3ccccc3nc2-1 (stereo partly drawn)
Activity (SK-BR-3 [1]): 1.34% | Activity [2]: Toxic | Activity (SK-BR-3 [3]): inactive | Activity [4]: Non-Toxic | Activity (SK-BR-3 [5]): Active | Activity [6]: Non-Toxic | Activity [7]: Non-Toxic | Activity [8]: Non-Toxic | Activity [9]: Non-Toxic | Activity [10]: Non-Toxic | Activity (SK-BR-3 [11]): 1.23% | Activity (SK-BR-3 [12]): Active | Activity [13]: Toxic | Activity (SK-BR-3 [14]): 6.9% | Activity [15]: Non-Toxic | Activity [16]: Toxic | Activity [17]: Non-Toxic | Activity [18]: Toxic | Activity (SK-BR-3 [19]): Active | Activity (SK-BR-3 [20]): 78.8% | Activity (SK-BR-3 [21]): 15.1% | Activity [22]: Toxic | Activity (SK-BR-3 [23]): inactive | Activity (SK-BR-3 [24]): Active | Activity (SK-BR-3 [25]): 16.8% | Activity (SK-BR-3 [26]): 74.9% | Activity (SK-BR-3 [27]): 4.89% | Activity [28]: Toxic
